# From PMC2782746 (Bioorganic & medicinal chemistry, 2008)
# “Also recorded” adds a separate entry of the source.
# Columns and labels:
# [1] = target: T1, G. gallus AIR carboxylase (Gallus gallus, UniProt P38024); assay: Test as alternative substrates for AIR carboxylase; type: biochemical; details: UV and HPLC analysis
# T1 sequence (P38024 1-426): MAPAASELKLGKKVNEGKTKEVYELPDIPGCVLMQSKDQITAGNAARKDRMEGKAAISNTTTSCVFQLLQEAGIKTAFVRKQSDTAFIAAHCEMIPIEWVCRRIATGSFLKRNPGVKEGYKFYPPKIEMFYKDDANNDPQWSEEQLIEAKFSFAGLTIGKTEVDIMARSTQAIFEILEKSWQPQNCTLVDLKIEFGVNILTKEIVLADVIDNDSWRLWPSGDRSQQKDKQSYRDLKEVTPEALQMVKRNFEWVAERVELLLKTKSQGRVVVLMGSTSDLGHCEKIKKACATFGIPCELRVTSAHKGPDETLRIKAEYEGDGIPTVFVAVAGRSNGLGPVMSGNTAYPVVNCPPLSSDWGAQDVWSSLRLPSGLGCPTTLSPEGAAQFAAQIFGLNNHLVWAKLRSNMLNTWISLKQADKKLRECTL
# [2] = tested on: N^5-CAIR mutase; details: fungal and bacterial N^5-CAIR mutase; cited from earlier work
# [3] = target: T1, G. gallus AIR carboxylase; details: cited from earlier work
# [4] = target: T1, G. gallus AIR carboxylase; assay: Inhibition of AIR carboxylase, CAIR decarboxylation assay; type: biochemical, G. gallus (chicken)
compound,measurement,setting,value
"Nc1c(C(=O)O)nnn1[C@@H]1O[C@H](COP(=O)(O)O)[C@@H](O)[C@H]1O [Compound 10, 5-Amino-1-(β-D-ribofuranosyl)-1,2,3-triazole-4-carboxylate 5′-phosphate]",alternative substrate for the enzyme,[1],neither compound is an alternative substrate
"Nc1c([N+](=O)[O-])ncn1[C@@H]1O[C@H](COP(=O)(O)O)[C@@H](O)[C@H]1O [Compound 3, 4-nitro-5-aminoimidazole ribonucleotide]",type of inhibition,[2],steady-state competitive inhibitor
same,fold tighter affinity for the enzyme than CAIR,[3]; compared with CAIR,"10,000 fold"
same,type of inhibition / kinetics,[3]; listed as NAIR,"slow, tight binding inhibitor; also recorded: slow, tight-binding kinetics"
"Nc1c(C(=O)O)cnn1[C@@H]1O[C@H](COP(=O)(O)O)[C@@H](O)[C@H]1O [Compound 8, 5-Amino-1-(β-D-ribofuranosyl)pyrazole-4-carboxylate 5′-phosphate]","fold difference in binding affinity, CAIR into CAPzR",[4]; compared to CAIR,3 fold
same,binding affinity relative to CAIR,[4]; in words,greater affinity than CAIR
